The text below walks through data of US9597531B2, “Selective, lipophilic, and long-acting beta agonist monotherapeutic formulations and methods for the cosmetic treatment of adiposity and contour bulging” (NEOTHETICS, INC., priority 2010, dated 2017).

For orientation: AUC(0-inf) means the area under the concentration-time curve extrapolated to infinity. Low values mean less exposure, high ones more exposure. One may read the Cmax as the maximum level reached in the sampled fluid or tissue. Usually half-life stands for how long it takes for the measured level to halve. A lower half-life goes with rapid decline. By Tmax is commonly meant the time from dosing to the highest level.

Each structure is given as a SMILES string. Read-outs that look alike come from different tables or passages of the source.

A short description of data set [1]: Pharmacokinetics and bioavailability in minipigs after SC administration (Example 8). Format: in vivo, Gottingen minipig. The settings on record: for AUC(0-inf) / Cmax / half-life / Tmax: Gottingen, minipig, plasma, 4 ug/kg. The protocol:
Plasma concentrations of salmeterol were monitored in a male and a female Gottingen minipig after SC administration of salmeterol xinafoate. SC dose of 4 μg/kg salmeterol xinafoate was administered as a single bolus dose. […] Samples were processed to plasma by centrifugation under refrigeration and stored frozen at approximately −70° C. (±15° C.) until analysis.
Other calculations were done using Microsoft Excel® XP. The bioanalytical and pharmacokinetic data were reported to 3 significant figures.

The conditions of data set [2]: minipig, in vivo.
For data set [3] the following is noted: compared with albuterol; cited from earlier work.
Data set [4] relates to inguinal fat pad. Briefly: Inguinal fat pad weight after SC injection into the rat inguinal fat pad (Example 6). Format: in vivo, Sprague-Dawley rats.
Description: Mature male Sprague-Dawley rats weighing approximately 500 g were lightly anesthetized with 4% isoflurane. Test article injections (drug vehicle, different doses of salmeterol xinafoate) were injected SC into the right inguinal fat pad in a volume of 0.4 mL. An equal volume of drug vehicle was injected into the left inguinal fat pad. […] Approximately 24 hours after the last injection, rats were anesthetized, sacrificed and the right and left fat pads harvested and weighed. The change in fat pad weight (Right vs. Left) was calculated and expressed as a percent change in inguinal fat pad weight (% change IFP=(Right side−Left side)×100/Left side).
Data set [5] deals with subcutaneous fat thickness. Briefly: Subcutaneous fat thickness by 2D-ultrasound (Example 7).
The mark [6] stands for this setting: SC single site 4 μg/kg, female 2-0623.
The mark [7] stands for this setting: SC single site 4 μg/kg, male 1-0771.

On to `OCc1cc(C(O)CNCCCCCCOCCCCc2ccccc2)ccc1O` (racemic) [Salmeterol, ±2-(hydroxymethyl)-4-[1-hydroxy-2-[6-(4-phenylbutoxy)hexylamino]ethyl]-phenol], for which, in data set [1] (setting [6]), the AUC(0-inf) is 1.67 ng·h/mL, the maximum concentration (Cmax) came to 0.433 ng/mL, the half-life was 494 min and the tlast is 24.0 h. In addition, the Tmax in data set [1] (SC single site 4 μg/kg, female 2-0623, read-out: Tmax) amounted to 30 min. In addition, in data set [1] (setting [7]), the AUC(0-inf) was 2.26 ng·h/mL, the highest concentration (Cmax) worked out at 0.564 ng/mL, the half-life was 684 min and the tlast turned out to be 24.0 h. In data set [1] (SC single site 4 μg/kg, male 1-0771, read-out: Tmax), the Tmax is 20 min. The “salmeterol partition ratio (average plasma Cmax subcutaneous / average plasma Cmax intravenous)” value in data set [2] (both, Gottingen) was 0.1. In data set [2] (0.004 ug/kg), this molecule returned a maximum concentration (Cmax) of 0 ng/mL. The plasma concentrations observed result in data set [2] (sc) is reported as “Scarce or no plasma concentrations”. For the same molecule, the “lipophilicity relative to albuterol” value in data set [3] was “at least 10,000 times”.
As for `OCc1cc(C(O)CNCCCCCCOCCCCc2ccccc2)ccc1O` (stereo not shown) [salmeterol xinafoate], in data set [1] (SC 4 μg/kg), the “absorption following SC administration” value is “rapidly absorbed”. Moreover, the Tmax in data set [1] (both sexes, SC 4 μg/kg, male and female, read-out: Tmax values) lay within 20 to 30 min. In data set [4] (0.1, 1, 10 or 100 μg SC into fat pad on 3 consecutive days, right vs left (vehicle) pad, FIG. 1), the “change in inguinal fat pad weight” value is “dose-related reduction in fat pad weight”. The “staining and histological evaluation of the tissue” value in data set [4] (inguinal fat pad after SC injection, data not shown) was “reduction in fat cell number and size”. Besides, in data set [5] (SC twice per week, 0.05, 0.5 or 5 μg per site), the “evaluation of the injection sites” value is on record as “did not reveal any adverse reactions”. Further, in data set [5] (SC twice per week, FIG. 2), the “fat thickness (2D-ultrasound)” value is “dose-related changes in fat thickness”. The “increase of fat thickness” value in data set [5] (highest dose (5 ng)) is recorded as “approximately 3%”. In addition, the “reduction of total fat thickness” value in data set [5] (lowest doses (0.05 and 0.5 ng)) is recorded as 7-9%.
